Measured values as given in US6372736B1, “Heterocyclic compounds as inhibitors of rotamase enzymes” (Pfizer INC, priority 1999, dated 2002).
Counter-ions that a name gives are not always drawn.

biological target: human recombinant FKBP-12 (Homo sapiens, UniProt P62942); experiment: coupled colorimetric PPIase (rotamase) assay, FKBP-12; type: biochemical; conditions: succinyl-AFPF-pNA substrate, chymotrypsin-coupled, 10° C., pH 8.0; read-out: IC50 for inhibition of the FKBP-12 enzyme
Source text: The affinity of the compounds of the formula (I) for FKBP-12 can be determined in vitro in a coupled calorimetric PPlase assay using similar procedures to published methods (e.g. see Kofron, J. L., et al., Biochemistry, 1991,30, 6127-6134, Zarnt, T., et al., Biochem. J. 1995, 305, 159-164, Holt, D. A., et al., J. Am. Chem. Soc., 1993, 115, 9925-9938). In these methods, the cis-trans isomerisation of a hydrophobic amino acid-proline bond in a tetrapeptide substrate (e.g. the phenylalanine-proline bond in N-succinyl-ala-phe-pro-phe-p-nitroanilide [succinyl-AFPF-pNA]) can be determined by monitoring cleavage of pNA from the transPro-containing peptide by an excess of chymotrypsin.
The IC50 (the concentration of the compound of the formula (I) producing 50% inhibition) values were determined using the following assay methodology. Assay buffer (2.175 ml) (50 mM 4-(2-hydroxyethyl)-1-piperazineethanesulphonic acid (HEPES), 100 mM NaCl, 1 mM dithiothreitol (DTT), pH 8.0) is equilibrated to 10° C. in a cuvette. 12.5 μl of a solution of the present compound in DMSO, 250 μl of a 60 mg/ml solution of α-chymotrypsin in 1 mM aqueous hydrochloric acid and then 50 μl of a solution of human recombinant FKBP-12 (4.5 μM) in assay buffer are added and mixed. The reaction is initiated by addition of 12.5 μl of a solution of 20 mM succinyl-AFPF-pNA in DMSO. The absorbance at 390 nm is monitored for one minute collecting data every 0.25 second. Data are fitted with a first order rate equation with offset and the rate constant obtained corrected for the rate of uncatalysed isomerisation of the substrate. The rate constant determined at different inhibitor concentrations (10 nM to 100 μM) is expressed as % inhibition of the control rate constant. The IC50 is estimated using a non-linear least squares curve fitting routine of the sigmoidal dose response data.

human recombinant FKBP-12, sequence (P62942 whole entry): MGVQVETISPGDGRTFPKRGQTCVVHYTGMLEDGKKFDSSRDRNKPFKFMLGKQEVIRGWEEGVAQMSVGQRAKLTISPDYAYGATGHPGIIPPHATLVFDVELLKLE

SMILES	IC50
O=C(N[C@H]1CCN(Cc2ccccc2)C1)[C@@H]1CCCCN1c1nc2ccccc2o1 [Example 2, (2S)-1-(1,3-Benzoxazol-2-yl)-N^2-[(3S)-1-benzylpyrrolidin-3-yl]-2-piperidinecarboxamide]	< 1200 nM
O=C(N[C@H]1CCN(Cc2ccccn2)C1)[C@@H]1CCCCN1c1nc2ccccc2o1 [Example 6, (2S)-1-(1,3-Benzoxazol-2-yl)-N^2-[(3S)-1-(2-pyridinylmethyl)pyrrolidin-3-yl]-2-piperidinecarboxamide]	< 1200 nM
O=C(N[C@H]1CCN(Cc2cccnc2)C1)[C@@H]1CCCCN1c1nc2ccccc2o1 [Example 7, (2S)-1-(1,3-Benzoxazol-2-yl)-N^2-[(3S)-1-(3-pyridinylmethyl)pyrrolidin-3-yl]-2-piperidinecarboxamide]	< 1200 nM
O=C(N[C@H]1CCN(Cc2ccncc2)C1)[C@@H]1CCCCN1c1nc2ccccc2o1 [Example 8, (2S)-1-(1,3-Benzoxazol-2-yl)-N^2-[(3S)-1-(4-pyridinylmethyl)pyrrolidin-3-yl]-2-piperidinecarboxamide]	< 1200 nM
NC(=O)c1cccc(CN2CC[C@H](NC(=O)[C@@H]3CCCCN3c3nc4ccccc4o3)C2)c1 [Example 13a, (2S)-N^2-1-{(3S)-1-[3-(Aminocarbonyl)phenylmethyl]pyrrolidin-3-yl}-1-(1,3-benzoxazol-2-yl)-2-piperidinecarboxamide]	< 1200 nM
O=C(N[C@H]1CCN(Cc2ccccc2)C1)[C@@H]1CCCCN1c1nc2ccc(Br)cc2o1 [Example 15, (2S)-N^2-[(3S)-1-Benzylpyrrolidin-3-yl]-1-(6-bromo-1,3-benzoxazol-2-yl)-2-piperidinecarboxamide]	< 1200 nM
O=C(N[C@H]1CCN(Cc2cc3ccccc3nc2Cl)C1)[C@@H]1CCCCN1c1nc2ccccc2o1 [Example 16]	< 1200 nM
O=C(N[C@H]1CCN(Cc2ccnc3ccccc23)C1)[C@@H]1CCCCN1c1nc2ccccc2o1 [Example 17]	< 1200 nM
O=C(N[C@H]1CCN(Cc2ccc3ccccc3n2)C1)[C@@H]1CCCCN1c1nc2ccccc2o1 [Example 18]	< 1200 nM
O=C(N[C@H]1CCN(Cc2cnc3ccccc3c2)C1)[C@@H]1CCCCN1c1nc2ccccc2o1 [Example 19]	< 1200 nM
CC(c1ccnc2ccccc12)N1CC[C@H](NC(=O)[C@@H]2CCCCN2c2nc3ccccc3o2)C1 (stereo partly shown) [Example 20]	< 1200 nM
O=C(N[C@H]1CCN(C(=O)c2ccc3ccccc3n2)C1)[C@@H]1CCCCN1c1nc2ccccc2o1 [Example 21, (2S)-N^2-{(3S)-1-[Quinolin-2-ylcarbonyl]pyrrolidin-3-yl}-1-(1,3-benzoxazol-2-yl)-2-piperidinecarboxamide]	< 1200 nM
O=C(N[C@H]1CCN(C(=O)c2cc(-c3ccccc3)nc3ccccc23)C1)[C@@H]1CCCCN1c1nc2ccccc2o1 [Example 22, (2S)-N^2-{(3S)-1-[2-Phenylquinolin-4-ylcarbonyl]pyrrolidin-3-yl}-1-(1,3-benzoxazol-2-yl)-2-piperidinecarboxamide]	< 1200 nM
COc1cc(C(=O)N2CC[C@H](NC(=O)[C@@H]3CCCCN3c3nc4ccccc4o3)C2)nc2ccccc12 [Example 23, (2S)-N^2-{(3S)-1-[4-Methoxyquinolin-2-ylcarbonyl]pyrrolidin-3-yl}-1-(1,3-benzoxazol-2-yl)-2-piperidinecarboxamide]	< 1200 nM
COc1ccc2nc(-c3ccccc3)cc(C(=O)N3CC[C@H](NC(=O)[C@@H]4CCCCN4c4nc5ccccc5o4)C3)c2c1 [Example 24, (2S)-N^2-{(3S)-1-[6-Methoxy-2-phenylquinolin-4-ylcarbonyl]pyrrolidin-3-yl}-1-(1,3-benzoxazol-2-yl)-2-piperidinecarboxamide]	< 1200 nM
O=C(N[C@H]1CCN(C(=O)c2cc(N3CCCCC3)nc3ccccc23)C1)[C@@H]1CCCCN1c1nc2ccccc2o1 [Example 25, (2S)-N^2-{(3S)-1-[2-Piperidinoquinolin-4-ylcarbonyl]pyrrolidin-3-yl}-1-(1,3-benzoxazol-2-yl)-2-piperidinecarboxamide]	< 1200 nM
O=C(N[C@H]1CCN(C(=O)c2cc(Cl)nc3ccccc23)C1)[C@@H]1CCCCN1c1nc2ccccc2o1 [Example 26, (2S)-N^2-{(3S)-1-[2-Chloroquinolin-4-ylcarbonyl]pyrrolidin-3-yl}-1-(1,3-benzoxazol-2-yl)-2-piperidinecarboxamide]	< 1200 nM
O=C(N[C@H]1CCN(C(=O)c2ccc3cn[nH]c3c2)C1)[C@@H]1CCCCN1c1nc2ccccc2o1 [Example 27, (2S)-N^2-{(3S)-1-[1H-benzpyrazol-6-ylcarbonyl]pyrrolidin-3-yl}-1-(1,3-benzoxazol-2-yl)-2-piperidinecarboxamide]	< 1200 nM
O=C(NC1CCCN(Cc2ccccc2)C1)[C@@H]1CCCCN1c1nc2ccccc2o1 (stereo partly drawn) [Example 30, (2S)-1-(1,3-Benzoxazol-2-yl)-N^2-(1-benzyl-3-piperidinyl)-2-piperidinecarboxamide]	< 1200 nM
O=C(N[C@H]1CN[C@H](COCc2ccccc2)C1)[C@@H]1CCCCN1c1nc2ccccc2o1 [Example 35, (2S)-1-(1,3-Benzoxazol-2-yl)-N^2-(3R,5S)-5-[(benzyloxy)methyl]pyrrolidin-3-yl-2-piperidinecarboxamide hydrochloride]	< 1200 nM
O=C(N[C@H]1CCN(Cc2ccccc2)C1)C1CCCCN1c1nc2ccccc2[nH]1 (stereo partly shown) [Example 41]	< 1200 nM

biological target: T1, human recombinant FKBP52 (Homo sapiens, UniProt Q02790); experiment: PPIase (rotamase) assay, FKBP-52; type: biochemical; conditions: read-out: IC50 for inhibition of the FKBP-52 enzyme
T1 sequence (Q02790 1-459): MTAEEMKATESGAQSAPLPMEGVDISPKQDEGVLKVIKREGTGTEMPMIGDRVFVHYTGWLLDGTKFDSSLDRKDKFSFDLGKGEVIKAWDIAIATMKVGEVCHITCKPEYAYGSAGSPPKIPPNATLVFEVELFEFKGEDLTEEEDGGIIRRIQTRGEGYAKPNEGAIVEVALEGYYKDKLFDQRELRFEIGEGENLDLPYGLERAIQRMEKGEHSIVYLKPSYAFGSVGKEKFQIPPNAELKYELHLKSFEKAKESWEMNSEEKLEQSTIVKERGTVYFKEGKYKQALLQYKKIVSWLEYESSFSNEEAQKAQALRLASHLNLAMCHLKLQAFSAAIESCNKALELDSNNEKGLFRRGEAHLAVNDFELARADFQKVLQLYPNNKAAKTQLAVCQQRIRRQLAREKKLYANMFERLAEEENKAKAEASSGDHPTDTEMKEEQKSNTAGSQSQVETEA
Method: Assay buffer (2.175 ml) (50 mM HEPES, 100 mM NaCl, 1 mM DTT, pH 8.0) is equilibrated to 10° C. in a cuvette. 12.5 μl of a solution of the present compound in DMSO, 250 μl of a 60 mg/ml solution of α-chymotrypsin in 1 mM aqueous hydrochloric acid and then 50 μL of a solution of human recombinant FKBP-12 (1.5 μM) in assay buffer are added and mixed. The reaction is initiated by adding 1 2.5 μl of a solution of anhydrous succinyl-ALPF-pNA (100 μM final concentration) in a 400 mM solution of LiCl in trifluoroethanol. The absorbance at 390 nm is monitored for 3 minutes collecting data every 0.5 second. Data are fitted with a first order rate equation with offset and the initial velocity (v) is calculated from the concentration of cis (re leu-pro bond)-succinyl-ALPF-pNA at to and the first order rate constant at different inhibitor concentrations (I). Data in the form vinh/vcontrol v. [I] are fitted with an equation for reversible tight binding inhibition to generate values for Ki,app (see Morrison, J. F., et al, Comments Mol. Cell Biophys., 1985, 2, 347-368). This analysis is used when the Ki,app approaches the concentration of FKBP-12 in the assay (30 nM). […] The same methodology is used to generate Ki,app for FKBP52 with the following modifications: Forty microlitres human recombinant FKBP52 (5.2 μM) is substituted for FKBP12 and 2.185 ml assay buffer are used in the assay. […]

SMILES	IC50
O=C(N[C@H]1CCN(Cc2ccccc2)C1)[C@@H]1CCCCN1c1nc2ccccc2o1 [Example 2, (2S)-1-(1,3-Benzoxazol-2-yl)-N^2-[(3S)-1-benzylpyrrolidin-3-yl]-2-piperidinecarboxamide]	2790 nM
